Measurements reported in patent US20080009418A1, “Selective Inhibitors” (Alchemia LTD., priority 2004, published 2008).

What was measured:
Human δ-opioid (DOP) = target: T1, Human δ-opioid (DOP) (Homo sapiens, UniProt P41143); experiment: Radioligand binding, human δ-opioid (DOP) membranes, FlashPlate, [3H]-Bremazocine; settings: compound at 10 μM; [3H]-Bremazocine
T1 construct: purchased Perkin Elmer Biosignal
Method in brief: (§1)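 Cloned human receptor membranes were coated onto FlashPlate wells and incubated with radioligand and compound (added from a 0.5 mM DMSO daughter plate) for 1 hour at room temperature in the dark. Scintillation counting gave percent inhibition, with DMSO defining total and reference ligand defining non-specific binding.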

Human κ-Opioid (KOP) = target: T2, Human κ-Opioid (KOP) (Homo sapiens, UniProt P41145); experiment: Radioligand binding, human κ-opioid (KOP) membranes, filtration, [3H]-Diprenorphine; settings: compound at 10 μM; [3H]-Diprenorphine; 10 µM
T2 construct: purchased Perkin Elmer Biosignal
Method in brief: (§2)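 Membranes from cloned human receptors were incubated with compound and radioligand for 1 hour at room temperature. Bound ligand was collected on 0.3% PEI-soaked filters, washed with cold 50 mM Tris-HCl pH 7.4, and counted by scintillation. Percent inhibition was computed against DMSO totals and reference-ligand nonspecific wells.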

Human Melanocortin (MC3) = target: T3, Human Melanocortin (MC3) (Homo sapiens, UniProt P41968); experiment: Radioligand binding, human melanocortin MC3 membranes, FlashPlate, [125I]-NDP-αMSH; settings: compound at 10 μM; [125I]-NDP-αMSH; 10 µM
T3 construct: purchased Perkin Elmer Biosignal
Method in brief: as §1

Human Melanocortin (MC4) = target: T4, Human Melanocortin (MC4) (Homo sapiens, UniProt P32245); experiment: Radioligand binding, human melanocortin MC4 membranes, FlashPlate, [125I]-NDP-αMSH; settings: compound at 10 μM; [125I]-NDP-αMSH; 10 µM
T4 construct: purchased Perkin Elmer Biosignal
Method in brief: as §1

Human melanocortin (MC5) = target: T5, Human melanocortin (MC5) (Homo sapiens, UniProt P33032); experiment: Radioligand binding, human melanocortin MC5 membranes, FlashPlate, [125I]-NDP-αMSH; settings: compound at 10 μM; [125I]-NDP-αMSH
T5 construct: purchased Perkin Elmer Biosignal
Method in brief: as §1

[1] = target: T6, Human melanin-concentrating hormone (MCH1) (Homo sapiens, UniProt Q99705); experiment: Radioligand binding, human melanin-concentrating hormone MCH1 membranes, FlashPlate, [125I]-S36057; settings: compound at 10 μM; [125I]-S36057
T6 construct: purchased Perkin Elmer Biosignal
Method in brief: as §1

Human μ-opioid (MOP) = target: T7, Human μ-opioid (MOP) (Homo sapiens, UniProt P35372); experiment: Radioligand binding, human μ-opioid (MOP) membranes, FlashPlate, [3H]-Naloxone; settings: compound at 10 μM; [3H]-Naloxone
T7 construct: purchased Perkin Elmer Biosignal
Method in brief: as §1

Human neurokinin (NK1) = target: T8, Human neurokinin (NK1) (Homo sapiens, UniProt P25103); experiment: Radioligand binding, human neurokinin NK1 membranes, filtration, [125I]-Substance P; settings: compound at 10 μM; [125I]-Substance P
T8 construct: purchased Perkin Elmer Biosignal
Method in brief: as §2

[2] = target: T9, Human neuropeptide Y (NPY-Y1) (Homo sapiens, UniProt P25929); experiment: Radioligand binding, human neuropeptide Y NPY-Y1 membranes, FlashPlate, [125I]-PYY; settings: compound at 10 μM; [125I]-PYY
T9 construct: purchased Perkin Elmer Biosignal
T9 sequence (P25929 1-384): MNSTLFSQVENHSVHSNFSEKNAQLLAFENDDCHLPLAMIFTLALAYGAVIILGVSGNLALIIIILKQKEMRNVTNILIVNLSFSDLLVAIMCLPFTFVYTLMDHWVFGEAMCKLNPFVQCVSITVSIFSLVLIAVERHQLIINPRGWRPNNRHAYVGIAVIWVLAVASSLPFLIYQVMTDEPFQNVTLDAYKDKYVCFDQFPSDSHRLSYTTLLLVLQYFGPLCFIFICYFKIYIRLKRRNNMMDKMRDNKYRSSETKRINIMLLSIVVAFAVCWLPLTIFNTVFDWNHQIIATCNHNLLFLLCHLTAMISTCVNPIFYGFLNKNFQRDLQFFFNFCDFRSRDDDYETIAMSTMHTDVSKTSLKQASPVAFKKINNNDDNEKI
Method in brief: as §1

Human opioid (ORL1) = target: T10, Human opioid (ORL1) (Homo sapiens, UniProt P41146); experiment: Radioligand binding, human opioid ORL1 membranes, FlashPlate, [125I]-Nociceptin; settings: compound at 10 μM; [125I]-Nociceptin
T10 construct: purchased Perkin Elmer Biosignal
Method in brief: as §1

Mouse urotensin (mUR2) = target: T11, Mouse urotensin (mUR2) (Mus musculus, UniProt Q8VIH9); experiment: Radioligand binding, mouse urotensin mUR2 membranes, FlashPlate, [125I]-Urotensin II; settings: compound at 10 μM; [125I]-Urotensin II
T11 construct: purchased Perkin Elmer Biosignal
T11 sequence (Q8VIH9 1-385): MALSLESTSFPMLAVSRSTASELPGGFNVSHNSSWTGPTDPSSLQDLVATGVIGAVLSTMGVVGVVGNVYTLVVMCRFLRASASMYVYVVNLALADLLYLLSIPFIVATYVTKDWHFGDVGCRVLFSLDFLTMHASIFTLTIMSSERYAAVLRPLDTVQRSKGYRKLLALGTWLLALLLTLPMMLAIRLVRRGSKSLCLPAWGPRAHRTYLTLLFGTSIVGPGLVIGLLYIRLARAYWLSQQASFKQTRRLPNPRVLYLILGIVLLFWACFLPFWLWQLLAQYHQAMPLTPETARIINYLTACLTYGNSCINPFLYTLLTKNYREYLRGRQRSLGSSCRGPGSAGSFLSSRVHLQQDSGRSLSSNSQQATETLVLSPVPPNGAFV
Method in brief: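 Cloned mouse urotensin (mUR2) receptor membranes from Perkin Elmer Biosignal were immobilized in FlashPlate microplates using a proprietary coating. Each well got 19.5 μl buffer, then 0.5 μl of DMSO, reference ligand, or compound. Adding 5 μl of [125I]-Urotensin II, diluted to 5× final concentration in binding buffer, started binding. Plates were sealed with TopSeal-A and incubated 1 hour at room temperature in the dark. Wells were counted for 30 seconds each on a TopCount after a 60-second delay, and percentage inhibition was calculated.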

T5 sequence (P33032 whole entry): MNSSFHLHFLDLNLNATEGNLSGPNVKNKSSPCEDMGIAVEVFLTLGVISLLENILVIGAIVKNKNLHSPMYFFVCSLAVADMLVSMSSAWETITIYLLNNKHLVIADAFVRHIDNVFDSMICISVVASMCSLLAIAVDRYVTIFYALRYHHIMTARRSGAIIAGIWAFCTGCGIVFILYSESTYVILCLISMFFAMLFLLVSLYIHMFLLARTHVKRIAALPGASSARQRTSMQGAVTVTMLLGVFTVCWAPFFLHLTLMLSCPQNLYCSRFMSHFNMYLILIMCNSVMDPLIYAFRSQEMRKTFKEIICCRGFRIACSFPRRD
T6 sequence (Q99705 whole entry): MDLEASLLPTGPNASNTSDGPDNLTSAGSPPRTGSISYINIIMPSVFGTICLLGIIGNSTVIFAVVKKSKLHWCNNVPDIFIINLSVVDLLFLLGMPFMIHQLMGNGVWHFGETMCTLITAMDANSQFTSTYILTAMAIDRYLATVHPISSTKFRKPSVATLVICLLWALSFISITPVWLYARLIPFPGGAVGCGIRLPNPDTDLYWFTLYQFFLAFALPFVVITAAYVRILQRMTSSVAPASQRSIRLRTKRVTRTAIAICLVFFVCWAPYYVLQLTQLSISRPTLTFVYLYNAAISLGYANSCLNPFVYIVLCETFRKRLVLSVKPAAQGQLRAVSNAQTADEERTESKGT
T3 sequence (P41968 whole entry): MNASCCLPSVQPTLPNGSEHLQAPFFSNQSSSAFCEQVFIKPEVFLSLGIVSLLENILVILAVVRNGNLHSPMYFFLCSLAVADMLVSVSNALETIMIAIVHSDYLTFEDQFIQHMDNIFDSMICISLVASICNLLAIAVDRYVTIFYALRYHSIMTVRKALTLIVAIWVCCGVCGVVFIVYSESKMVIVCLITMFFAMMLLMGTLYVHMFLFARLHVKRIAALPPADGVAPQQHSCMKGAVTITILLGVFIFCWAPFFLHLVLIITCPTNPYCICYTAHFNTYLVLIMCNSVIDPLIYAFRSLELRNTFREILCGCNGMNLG
T8 sequence (P25103 whole entry): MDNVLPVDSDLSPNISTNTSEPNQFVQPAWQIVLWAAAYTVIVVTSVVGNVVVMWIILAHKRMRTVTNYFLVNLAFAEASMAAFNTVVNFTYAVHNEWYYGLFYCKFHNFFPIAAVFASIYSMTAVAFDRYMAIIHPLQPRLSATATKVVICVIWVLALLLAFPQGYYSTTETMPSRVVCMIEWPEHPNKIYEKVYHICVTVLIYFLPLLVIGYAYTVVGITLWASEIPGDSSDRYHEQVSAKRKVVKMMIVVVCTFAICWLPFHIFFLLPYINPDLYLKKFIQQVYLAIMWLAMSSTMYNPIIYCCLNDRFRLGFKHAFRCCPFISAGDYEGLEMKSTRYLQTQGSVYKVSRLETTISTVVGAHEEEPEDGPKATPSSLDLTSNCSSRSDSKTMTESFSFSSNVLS
T7 sequence (P35372 whole entry): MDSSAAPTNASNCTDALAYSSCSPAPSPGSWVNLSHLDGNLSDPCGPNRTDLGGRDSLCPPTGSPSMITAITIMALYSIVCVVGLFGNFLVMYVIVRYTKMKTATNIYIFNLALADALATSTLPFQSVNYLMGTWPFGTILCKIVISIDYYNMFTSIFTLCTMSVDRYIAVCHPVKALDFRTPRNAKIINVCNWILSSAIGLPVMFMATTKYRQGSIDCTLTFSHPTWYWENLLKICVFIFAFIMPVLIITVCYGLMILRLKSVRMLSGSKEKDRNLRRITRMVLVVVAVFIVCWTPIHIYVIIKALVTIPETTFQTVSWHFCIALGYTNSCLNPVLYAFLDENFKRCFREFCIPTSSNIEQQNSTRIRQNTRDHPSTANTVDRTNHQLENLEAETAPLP
T4 sequence (P32245 whole entry): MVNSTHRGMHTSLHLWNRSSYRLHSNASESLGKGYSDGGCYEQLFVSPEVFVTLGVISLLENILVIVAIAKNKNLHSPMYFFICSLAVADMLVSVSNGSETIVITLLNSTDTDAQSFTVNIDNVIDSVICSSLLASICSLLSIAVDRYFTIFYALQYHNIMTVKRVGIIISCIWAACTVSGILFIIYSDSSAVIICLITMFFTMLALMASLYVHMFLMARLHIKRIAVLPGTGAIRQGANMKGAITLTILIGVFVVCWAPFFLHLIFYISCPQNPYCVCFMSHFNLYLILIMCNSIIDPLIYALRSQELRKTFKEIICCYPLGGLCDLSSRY
T1 sequence (P41143 whole entry): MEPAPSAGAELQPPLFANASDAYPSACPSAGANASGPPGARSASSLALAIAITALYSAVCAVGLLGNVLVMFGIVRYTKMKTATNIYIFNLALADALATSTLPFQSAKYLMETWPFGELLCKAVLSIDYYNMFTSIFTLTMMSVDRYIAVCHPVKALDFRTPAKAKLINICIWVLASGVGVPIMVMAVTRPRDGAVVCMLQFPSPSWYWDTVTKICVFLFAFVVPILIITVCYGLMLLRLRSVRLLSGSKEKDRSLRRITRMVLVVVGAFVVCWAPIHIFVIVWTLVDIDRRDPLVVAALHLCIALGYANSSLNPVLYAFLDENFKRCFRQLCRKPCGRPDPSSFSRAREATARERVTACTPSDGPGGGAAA
T10 sequence (P41146 whole entry): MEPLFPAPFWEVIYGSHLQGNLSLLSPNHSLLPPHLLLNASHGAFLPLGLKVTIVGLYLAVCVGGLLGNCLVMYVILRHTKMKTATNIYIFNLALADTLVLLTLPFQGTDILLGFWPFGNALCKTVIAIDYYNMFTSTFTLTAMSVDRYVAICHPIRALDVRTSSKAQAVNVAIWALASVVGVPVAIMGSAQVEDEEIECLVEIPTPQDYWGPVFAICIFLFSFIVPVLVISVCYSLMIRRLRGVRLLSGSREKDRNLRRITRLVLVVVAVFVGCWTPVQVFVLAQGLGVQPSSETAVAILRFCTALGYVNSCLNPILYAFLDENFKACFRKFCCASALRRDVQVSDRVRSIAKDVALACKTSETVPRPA
T2 sequence (P41145 whole entry): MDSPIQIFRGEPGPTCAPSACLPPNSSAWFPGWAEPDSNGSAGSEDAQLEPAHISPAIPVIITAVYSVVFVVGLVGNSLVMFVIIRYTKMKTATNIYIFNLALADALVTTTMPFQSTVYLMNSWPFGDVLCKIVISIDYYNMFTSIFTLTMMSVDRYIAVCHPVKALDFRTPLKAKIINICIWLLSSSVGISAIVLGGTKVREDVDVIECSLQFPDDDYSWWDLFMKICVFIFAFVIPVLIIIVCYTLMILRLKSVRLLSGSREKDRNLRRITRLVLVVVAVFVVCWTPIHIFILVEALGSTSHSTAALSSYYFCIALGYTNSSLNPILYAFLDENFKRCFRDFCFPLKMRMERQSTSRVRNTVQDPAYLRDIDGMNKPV

Row | SMILES | A1: inhibition of radioligand binding, human δ-opioid (DOP) (Human δ-opioid (DOP)) | A2: inhibition of radioligand binding, human κ-opioid (KOP) (Human κ-Opioid (KOP)) | A3: inhibition of radioligand binding, human melanocortin (MC3) (Human Melanocortin (MC3)) | A4: inhibition of radioligand binding, human melanocortin (MC4) (Human Melanocortin (MC4)) | A5: inhibition of radioligand binding, human melanocortin (MC5) (Human melanocortin (MC5)) | A6: inhibition of radioligand binding, human melanin-concentrating hormone (MCH1) [1] | A7: inhibition of radioligand binding, human μ-opioid (MOP) (Human μ-opioid (MOP)) | A8: inhibition of radioligand binding, human neurokinin (NK1) (Human neurokinin (NK1)) | A9: inhibition of radioligand binding, human neuropeptide Y (NPY-Y1) [2] | A10: inhibition of radioligand binding, human opioid (ORL1) (Human opioid (ORL1)) | A11: inhibition of radioligand binding, mouse urotensin (mUR2) (Mouse urotensin (mUR2))
1 | N=C(N)NCCC(=O)N[C@H]1C(OCc2ccc(Cl)cc2)O[C@H](COCc2ccccc2)[C@@H](O)[C@@H]1OCc1ccc(Cl)cc1 (stereo partly drawn) [compound 525] | − (“−” indicates less than 50% inhibition at 10 μM) | + (“+” indicates greater than 50% inhibition at 10 μM) | + (“+” indicates greater than 50% inhibition at 10 μM) | + (“+” indicates greater than 50% inhibition at 10 μM) | + (“+” indicates greater than 50% inhibition at 10 μM) | + (“+” indicates greater than 50% inhibition at 10 μM) | − (“−” indicates less than 50% inhibition at 10 μM) | + (“+” indicates greater than 50% inhibition at 10 μM) | − (“−” indicates less than 50% inhibition at 10 μM) | − (“−” indicates less than 50% inhibition at 10 μM) | − (“−” indicates less than 50% inhibition at 10 μM)
2 | N=C(N)NCCC(=O)N[C@H]1C(OCc2ccc(Cl)cc2)O[C@H](COCc2ccc(Cl)cc2)[C@@H](O)[C@@H]1OCc1ccc(Cl)cc1 (stereo partly drawn) [compound 526] | − (“−” indicates less than 50% inhibition at 10 μM) | − (“−” indicates less than 50% inhibition at 10 μM) | − (“−” indicates less than 50% inhibition at 10 μM) | − (“−” indicates less than 50% inhibition at 10 μM) | + (“+” indicates greater than 50% inhibition at 10 μM) | + (“+” indicates greater than 50% inhibition at 10 μM) | − (“−” indicates less than 50% inhibition at 10 μM) | + (“+” indicates greater than 50% inhibition at 10 μM) | − (“−” indicates less than 50% inhibition at 10 μM) | − (“−” indicates less than 50% inhibition at 10 μM) | − (“−” indicates less than 50% inhibition at 10 μM)
3 | N=C(N)NCCC(=O)N[C@H]1C(OCc2ccc(Cl)cc2)O[C@H](COCc2ccc(Cl)cc2)[C@@H](O)[C@@H]1OCc1ccc(Cl)cc1 (stereo partly drawn) [compound 527] | − (“−” indicates less than 50% inhibition at 10 μM) | + (“+” indicates greater than 50% inhibition at 10 μM) | + (“+” indicates greater than 50% inhibition at 10 μM) | + (“+” indicates greater than 50% inhibition at 10 μM) | + (“+” indicates greater than 50% inhibition at 10 μM) | + (“+” indicates greater than 50% inhibition at 10 μM) | − (“−” indicates less than 50% inhibition at 10 μM) | + (“+” indicates greater than 50% inhibition at 10 μM) | − (“−” indicates less than 50% inhibition at 10 μM) | − (“−” indicates less than 50% inhibition at 10 μM) | − (“−” indicates less than 50% inhibition at 10 μM)
